Experimental data as given in US10342795B2, “Substituted 4,5,6,7-tetrahydro-pyrazolo[1,5-a]pyrimidine derivatives and 2,3-dihydro-1H-imidazo[1,2-b]pyrazole derivatives as ROS1 inhibitors” (Janssen Pharmaceutica NV, priority 2014, dated 2019).

Columns and labels:
Ros1 enzyme = molecular target: T1, Ros1 enzyme (Homo sapiens, UniProt P08922); assay: Ros1 enzymatic assay; type: biochemical; conditions: -log IC50 (M); 20 μM ATP, 120 min at room temperature; read-out: ROS1 pIC50 (converted)
T1 construct: 0.5 μg/ml Ros1 enzyme
T1 sequence (P08922 28-2347): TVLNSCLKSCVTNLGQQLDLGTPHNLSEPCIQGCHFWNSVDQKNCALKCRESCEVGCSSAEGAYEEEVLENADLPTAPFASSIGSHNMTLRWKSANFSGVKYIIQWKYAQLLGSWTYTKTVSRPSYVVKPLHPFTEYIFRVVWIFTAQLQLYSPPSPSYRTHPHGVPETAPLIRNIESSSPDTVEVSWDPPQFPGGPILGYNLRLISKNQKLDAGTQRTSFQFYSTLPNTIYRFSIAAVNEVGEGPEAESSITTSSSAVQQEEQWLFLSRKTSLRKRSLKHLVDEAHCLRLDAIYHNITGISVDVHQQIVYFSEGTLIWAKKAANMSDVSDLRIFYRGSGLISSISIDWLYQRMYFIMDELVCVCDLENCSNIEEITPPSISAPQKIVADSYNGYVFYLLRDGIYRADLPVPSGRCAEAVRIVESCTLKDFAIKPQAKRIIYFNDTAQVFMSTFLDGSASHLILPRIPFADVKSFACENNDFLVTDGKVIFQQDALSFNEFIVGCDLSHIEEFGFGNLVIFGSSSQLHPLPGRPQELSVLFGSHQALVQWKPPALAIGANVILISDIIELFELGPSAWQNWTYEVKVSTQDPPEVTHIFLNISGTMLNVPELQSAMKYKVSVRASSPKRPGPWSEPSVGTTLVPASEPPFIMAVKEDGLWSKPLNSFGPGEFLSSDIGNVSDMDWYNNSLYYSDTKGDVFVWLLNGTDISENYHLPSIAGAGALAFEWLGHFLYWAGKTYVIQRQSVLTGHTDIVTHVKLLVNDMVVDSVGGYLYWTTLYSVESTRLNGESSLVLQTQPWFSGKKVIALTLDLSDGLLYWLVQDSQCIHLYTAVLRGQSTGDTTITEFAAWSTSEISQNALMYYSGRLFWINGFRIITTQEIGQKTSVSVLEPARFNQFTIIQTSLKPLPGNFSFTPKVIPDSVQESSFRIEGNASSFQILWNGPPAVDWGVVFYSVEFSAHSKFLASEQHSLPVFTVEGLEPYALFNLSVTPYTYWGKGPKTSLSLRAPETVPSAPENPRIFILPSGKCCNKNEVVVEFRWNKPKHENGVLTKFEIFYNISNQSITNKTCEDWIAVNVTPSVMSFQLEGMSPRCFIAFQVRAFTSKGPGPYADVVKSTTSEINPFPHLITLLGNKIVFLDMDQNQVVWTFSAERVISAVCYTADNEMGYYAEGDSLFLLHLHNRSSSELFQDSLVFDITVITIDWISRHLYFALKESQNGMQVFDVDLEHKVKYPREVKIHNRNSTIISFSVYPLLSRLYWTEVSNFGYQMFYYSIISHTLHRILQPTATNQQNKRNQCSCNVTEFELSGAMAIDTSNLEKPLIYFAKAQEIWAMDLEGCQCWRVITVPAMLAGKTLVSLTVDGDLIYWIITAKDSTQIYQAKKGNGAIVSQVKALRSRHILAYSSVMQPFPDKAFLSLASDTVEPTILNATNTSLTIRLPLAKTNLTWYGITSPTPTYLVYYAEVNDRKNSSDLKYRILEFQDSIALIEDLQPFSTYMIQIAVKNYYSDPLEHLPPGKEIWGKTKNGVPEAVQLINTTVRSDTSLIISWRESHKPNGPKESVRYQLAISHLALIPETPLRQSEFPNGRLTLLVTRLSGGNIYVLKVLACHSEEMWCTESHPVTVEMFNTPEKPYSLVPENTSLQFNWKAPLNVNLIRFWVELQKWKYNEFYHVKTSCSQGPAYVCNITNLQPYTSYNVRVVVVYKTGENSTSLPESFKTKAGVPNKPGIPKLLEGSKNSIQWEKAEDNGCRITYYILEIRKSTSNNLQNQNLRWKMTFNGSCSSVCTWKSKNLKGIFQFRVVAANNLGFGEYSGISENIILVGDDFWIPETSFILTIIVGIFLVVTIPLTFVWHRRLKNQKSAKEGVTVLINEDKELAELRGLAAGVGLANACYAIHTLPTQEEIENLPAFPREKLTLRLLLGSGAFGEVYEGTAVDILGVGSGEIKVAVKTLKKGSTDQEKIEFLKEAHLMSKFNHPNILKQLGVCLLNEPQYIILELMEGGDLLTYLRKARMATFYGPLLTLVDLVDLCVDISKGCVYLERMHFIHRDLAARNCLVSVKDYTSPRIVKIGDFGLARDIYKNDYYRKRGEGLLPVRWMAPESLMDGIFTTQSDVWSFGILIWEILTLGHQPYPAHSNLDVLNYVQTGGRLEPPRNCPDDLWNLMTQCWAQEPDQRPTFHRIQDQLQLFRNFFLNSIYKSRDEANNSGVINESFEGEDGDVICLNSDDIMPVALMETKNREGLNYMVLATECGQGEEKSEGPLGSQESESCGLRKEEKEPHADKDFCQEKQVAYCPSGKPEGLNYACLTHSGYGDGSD
Protocol: Compounds were spotted onto white 384-well Proxiplate plus plates (Perkin Elmer) to which 5 μl of enzyme mix (0.5 μg/ml Ros1 enzyme, 50 mM Tris-HCl pH7.5, 1 mM EGTA, 10 mM MgCl2, 0.01% Tween-20) and 5 μl of substrate mix (6 μg/ml IRS-Tide [American Peptide Company], 20 μM ATP, 13.33 μCi/ml ATP (adenosine 5′-triphosphate) P^33, 50 mM Tris-HCl pH7.5, 1 mM EGTA (ethylene glycol-bis(2-aminoethylether)-N,N,N′,N′-tetraacetic acid), 10 mM MgCl2, 0.01% Tween-20) were added. After incubation for 120 minutes at room temperature, 10 μl of stop reaction buffer (5 mM EDTA, 50 μM ATP, 0.1% BSA (bovine serum albumin), 0.1% Triton X-100, 50 mM Tris-HCl pH7.5, 1 mM EGTA, 10 mM MgCl2, 0.01% Tween-20) containing 2 mg/ml streptavidin coupled polystyrene imaging beads (Amersham Biosciences) was added and incubated for 15 minutes at room temperature. Plates were centrifuged for 3 minutes at 1500 rpm and signals detected in a LEADseeker imaging system (GE).

[1] = molecular target: Ba/F3 cells containing Ros1 wild-type protein (Homo sapiens, UniProt P08922, cells depend on it, form not given); assay: Ba/F3-Ros1 cell proliferation assay, wild-type Ros1, without IL-3; type: cell-based, murine; conditions: -log IC50 (M); wild-type Ros1, no IL-3, 24 h, Alamar Blue
Sequence of Ba/F3 cells containing Ros1 wild-type protein (P08922 whole entry, stated change not applied): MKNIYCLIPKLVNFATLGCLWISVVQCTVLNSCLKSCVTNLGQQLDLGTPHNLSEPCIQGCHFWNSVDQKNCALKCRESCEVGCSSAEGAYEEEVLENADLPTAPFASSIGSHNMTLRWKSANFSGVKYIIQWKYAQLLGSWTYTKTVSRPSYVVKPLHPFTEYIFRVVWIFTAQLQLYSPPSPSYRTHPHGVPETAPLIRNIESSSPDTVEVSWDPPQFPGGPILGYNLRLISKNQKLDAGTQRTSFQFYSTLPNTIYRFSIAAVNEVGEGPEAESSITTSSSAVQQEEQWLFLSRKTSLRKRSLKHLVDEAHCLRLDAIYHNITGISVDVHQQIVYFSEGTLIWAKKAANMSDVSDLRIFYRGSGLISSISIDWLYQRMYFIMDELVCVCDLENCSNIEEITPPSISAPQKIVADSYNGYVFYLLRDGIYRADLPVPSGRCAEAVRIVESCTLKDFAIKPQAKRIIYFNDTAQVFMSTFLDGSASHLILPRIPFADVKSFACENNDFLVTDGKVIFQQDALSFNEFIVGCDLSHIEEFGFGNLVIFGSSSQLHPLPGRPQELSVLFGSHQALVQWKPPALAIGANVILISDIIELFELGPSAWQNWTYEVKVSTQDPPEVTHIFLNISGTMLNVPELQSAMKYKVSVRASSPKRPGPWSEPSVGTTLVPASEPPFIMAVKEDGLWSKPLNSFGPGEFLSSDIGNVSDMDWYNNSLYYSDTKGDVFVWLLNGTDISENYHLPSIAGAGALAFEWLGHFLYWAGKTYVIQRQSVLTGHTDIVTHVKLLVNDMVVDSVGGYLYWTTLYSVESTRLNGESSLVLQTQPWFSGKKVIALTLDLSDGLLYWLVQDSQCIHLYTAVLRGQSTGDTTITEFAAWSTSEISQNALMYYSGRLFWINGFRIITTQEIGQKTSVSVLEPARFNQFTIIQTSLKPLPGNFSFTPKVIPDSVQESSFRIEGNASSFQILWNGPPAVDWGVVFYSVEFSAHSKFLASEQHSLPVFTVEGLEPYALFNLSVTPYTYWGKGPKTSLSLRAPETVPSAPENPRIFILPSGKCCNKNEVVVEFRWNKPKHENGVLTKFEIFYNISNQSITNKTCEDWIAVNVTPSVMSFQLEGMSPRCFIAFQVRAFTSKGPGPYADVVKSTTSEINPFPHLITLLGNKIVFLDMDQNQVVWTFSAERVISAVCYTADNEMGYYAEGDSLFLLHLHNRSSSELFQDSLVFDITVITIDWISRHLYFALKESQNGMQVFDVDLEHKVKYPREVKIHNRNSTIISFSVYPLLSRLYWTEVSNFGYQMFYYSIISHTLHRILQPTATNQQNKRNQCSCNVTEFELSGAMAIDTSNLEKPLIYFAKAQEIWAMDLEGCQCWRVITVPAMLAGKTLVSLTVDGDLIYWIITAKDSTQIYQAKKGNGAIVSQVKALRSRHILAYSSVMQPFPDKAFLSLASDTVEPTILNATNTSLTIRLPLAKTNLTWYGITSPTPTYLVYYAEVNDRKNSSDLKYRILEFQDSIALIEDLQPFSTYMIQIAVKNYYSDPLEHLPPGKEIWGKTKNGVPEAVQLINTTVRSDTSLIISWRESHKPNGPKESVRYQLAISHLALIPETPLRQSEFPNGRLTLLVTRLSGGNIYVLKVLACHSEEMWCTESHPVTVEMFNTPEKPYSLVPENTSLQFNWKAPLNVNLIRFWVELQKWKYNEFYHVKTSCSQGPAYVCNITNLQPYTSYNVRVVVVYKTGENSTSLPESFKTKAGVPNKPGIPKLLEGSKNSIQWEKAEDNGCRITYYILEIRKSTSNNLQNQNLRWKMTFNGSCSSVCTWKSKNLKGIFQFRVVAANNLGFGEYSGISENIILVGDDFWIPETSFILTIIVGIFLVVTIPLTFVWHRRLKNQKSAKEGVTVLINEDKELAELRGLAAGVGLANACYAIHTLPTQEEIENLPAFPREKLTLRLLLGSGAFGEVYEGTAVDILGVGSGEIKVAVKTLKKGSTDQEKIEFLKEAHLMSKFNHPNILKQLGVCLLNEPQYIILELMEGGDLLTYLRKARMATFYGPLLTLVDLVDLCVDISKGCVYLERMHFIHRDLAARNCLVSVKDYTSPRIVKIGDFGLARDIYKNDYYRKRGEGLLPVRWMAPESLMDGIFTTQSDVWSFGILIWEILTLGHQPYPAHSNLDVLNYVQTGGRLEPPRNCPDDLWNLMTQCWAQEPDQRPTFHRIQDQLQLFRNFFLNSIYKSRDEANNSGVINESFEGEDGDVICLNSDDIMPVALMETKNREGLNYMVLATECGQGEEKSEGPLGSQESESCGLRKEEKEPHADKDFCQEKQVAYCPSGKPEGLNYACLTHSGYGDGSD
Protocol: (§1) This assay was carried out with Ba/F3 cells containing three different versions of Ros1: the wild-type protein, protein with a mutation at the gatekeeper residue (L2026M), and protein with a mutation identified in a tumor from a patient that became resistant to crizotinib (Xalkori®) treatment (G2032R). Compounds were solubilized in 100% DMSO (dimethyl sulfoxide) and sprayed into polystyrene, tissue culture treated 384-well plates. A 50 μl volume of cell culture medium (phenol red free RPMI-1640, 10% FBS (fetal bovine serum), 2 mM L-Glutamine) containing 20000 Ba/F3-Ros1 cells was added to each well and the plates were placed in an incubator at 37° C. and 5% CO2. After 24 hours, 10 μl of Alamar Blue solution (0.5 mM K3Fe(CN)6, 0.5 mM K4Fe(CN)6, 0.15 mM Resazurin and 100 mM Phosphate Buffer) was added to the wells, incubated for 4 hours at 37° C. and 5% CO2 before RFU's (Relative Fluorescence Units) (ex. 540 nm., em. 590 nm.) were measured in a fluorescence plate reader.

[2] = tested on: Ba/F3 cells containing Ros1 wild-type protein + IL-3; assay: Ba/F3-Ros1 cell proliferation counter-screen, wild-type Ros1 in the presence of murine IL-3; type: cell-based; conditions: Mus musculus, BaF3, 24 h; -log IC50 (M); wild-type Ros1, 10 ng/ml murine IL-3 (counter-screen); read-out: BaF3-ROS1 + IL3 pIC50 (converted)
Protocol: as §1
As a counter-screen the same experiment was performed for the wild-type protein in the presence of 10 ng/ml murine IL-3.

[3] = molecular target: Ba/F3 cells containing Ros1 L2026M (Homo sapiens, UniProt P08922, L2026M, cells depend on it, form not given); assay: Ba/F3-Ros1 cell proliferation assay, L2026M gatekeeper mutant; type: cell-based, murine; conditions: -log IC50 (M), no IL-3
Sequence of Ba/F3 cells containing Ros1 L2026M (P08922 whole entry L2026M, form open): as the sequence (P08922 whole entry, stated change not applied) above, with L2026M counted along it
Protocol: as §1

[4] = molecular target: Ba/F3 cells containing Ros1 G2032R (Homo sapiens, UniProt P08922, G2032R, cells depend on it, form not given); assay: Ba/F3-Ros1 cell proliferation assay, G2032R mutant; type: cell-based, murine; conditions: -log IC50 (M), no IL-3
Sequence of Ba/F3 cells containing Ros1 G2032R (P08922 whole entry G2032R, form open): as the sequence (P08922 whole entry, stated change not applied) above, with G2032R counted along it
Protocol: as §1

[5] = tested on: HCC78 non-small cell lung cancer cells; assay: HCC78 cell proliferation assay; type: cell-based; conditions: Homo sapiens, HCC78, 96 h; -log EC50 (M); 4 days, MTT; read-out: HCC-78 PROL pEC50 (converted)
Protocol: Approximately 1000 HCC78 non-small cell lung cancer cells in 180 μl of cell culture medium (RPMI-1640, 10% FBS, 2 mM L-Glutamine, 10 mM Hepes, 1 mM sodium pyruvate, 4.5 g/L glucose, 1.5 g/L sodium bicarbonate, 25 μg/ml Gentamycin) were seeded in each well of a 96-well polystyrene, tissue-culture treated plate and incubated at 37° C. and 5% CO2. After 24 hours, compounds were diluted in cell culture medium from which 20 μl was added to the wells containing cells and incubated for 4 days at 37° C. and 5% CO2. A 5 mg/ml solution of the tetrazolium dye MTT was prepared in PBS (phosphate-buffered saline) and 25 μl was added to each well. After 2 hours the medium was removed and replaced by 125 μL of 4/1 DMSO/glycine buffer (0.1M glycine, 0.1M NaCl, pH 10.5) before absorbance was determined at 538 nm.

Ros pY2274 = Ros pY2274 (Homo sapiens, UniProt P08922); assay: pROS1 immunofluorescence assay in HCC78 cells; type: cell-based; conditions: -log IC50 (M); 4 hours, Ros1 pY2274 normalized to total Ros1
Protocol: Approximately 20000 HCC78 non-small cell lung cancer cells in 180 μl of cell culture medium (RPMI-1640, 10% FBS, 2 mM L-Glutamine, 10 mM Hepes, 1 mM sodium pyruvate, 4.5 g/L glucose, 1.5 g/L sodium bicarbonate, 25 μg/ml Gentamycin) were seeded in each well of a 96-well polystyrene, poly-D-lysine coated plate and incubated at 37° C. and 5% CO2. After 24 hours, compounds were diluted in cell culture medium from which 20 μl was added to the wells containing cells and incubated for 4 hours at 37° C. and 5% CO2. The medium was removed and the cells were fixed by adding 100 μl of 5% formaldehyde in TBS (tris-buffered saline) (50 mM Tris.HCl, pH 7.4, 150 mM NaCl) and incubating for 15 minutes at room temperature. The formaldehyde was removed and replaced with methanol for 10 minutes at room temperature, after which the cells were washed 3 times with TBS containing 1% Triton X-100 and incubated in Odyssee (Li-Cor) blocking buffer for 1 hour at room temperature. The cells were then incubated with the primary rabbit antibody directed against Ros pY2274 (cst-3078) diluted 1/200 in blocking buffer for 24 hours at room temperature. The cells were washed three times with TBS containing 0.1% Triton X-100 and incubated with a secondary anti-rabbit antibody conjugated to the fluorescent dye Alexafluor 680 in blocking buffer for 1 hour at room temperature. The cells were washed three times with TBS containing 0.1% Triton X-100 and left to dry before measuring RFUs (Relative Fluorescence Units) at 700 nm using a fluorescence imager. The same experiment was performed using total Ros1 antibody (sc-6347) diluted 1/1000 instead of Ros1 pY2274 antibody and an anti-goat antibody conjugated to IRDye800cw as a secondary antibody. RFUs were measured at […]. The signals from total Ros1 detection were used to normalize the Ros1pY2274 values.

Ba/F3-Ros1 G2032R tumors = assay: Efficacy study in mice bearing Ba/F3-Ros1 G2032R tumors; type: in vivo, NMRI nude mice; conditions: oral gavage, 10 days, 20% cyclodextrin, change in final relative tumor volumes
Protocol: Approximately 2×10^6 Ba/F3 cells containing G2032R mutant Ros1 were inoculated into the inguinal region of NMRI nude mice. When the resulting tumors reached a size of 250 to 350 mm^3, mice were randomly assigned to the different treatment groups (8 to 12 mice per group). Compounds formulated in 20% cyclodextrin were administered to the mice by oral gavage at various doses for 10-days once (QD) or twice (BID) a day (see table below for administration frequency used in the study). Tumor sizes were determined by caliper measurement on day 1 prior to treatment and then twice weekly for the duration of the study using the commonly following formula: tumor volume (mm^3)=(a×b^2/2); where ‘a’ represents the length, and ‘b’ the width of the tumor. Treatment/control (T/C) ratios were calculated at the end of the study based on the change in final relative tumor volumes.

| Compound | IC50 (Ros1 enzyme) [M] | BaF3-ROS1 − IL3 pIC50 [1] | CC50 [2] [M] | Ba/F3 Ros1 L2026M (-IL-3) pIC50 [3] | Ba/3 Ros1 G2032R (-IL-3) pIC50 [4] | EC50 [5] [M] | melting point [°C] | HCC78 pRos pIC50 (Ros pY2274) | T/C (%) (Ba/F3-Ros1 G2032R tumors; 12.5 mg/kg BID) | T/C (%) (Ba/F3-Ros1 G2032R tumors; 25 mg/kg BID) | T/C (%) (Ba/F3-Ros1 G2032R tumors; 50 mg/kg BID) |
| --- | --- | --- | --- | --- | --- | --- | --- | --- | --- | --- | --- |
| CC(C)c1ccc(COc2ccc(-c3c(-c4ccncc4)nn4c3NCC4)c(F)c2)cc1 [Co. 5] | ~1.26e-07 | 7.1 | > 1e-05 | <5 | 6.7 | 7.94e-07 | 141 |  |  |  |  |
| CC(C)c1ccc(COc2ccc(-c3c(-c4ccncc4)nn4c3NC(=O)CC4)cc2)cc1 [Co. 16] | 1.26e-07 | 7.0 | > 1e-05 | 7.3 |  | 1e-07 | 290 | ~5.4 |  |  |  |
| CC(C)c1ccc(COc2ccc(-c3c(-c4ccncc4)nn4c3N(CCO)CC4)cc2)cc1 [Co. 10] | 1.26e-07 | 7.1 | > 1e-05 | 6.8 | 6.4 | 2.51e-06 | 151 |  |  |  |  |
| CC(C)c1ccc(COc2ccc(-c3c(-c4ccncc4)nn4c3NCCC4)cc2)cc1 [Co. 17] | 3.98e-08 | 7.1 | > 1e-05 | 6.9 |  | 1e-07 | 205 | 7.6 |  |  |  |
| CC(C)c1ccc(COc2cc(F)c(-c3c(-c4ccncc4)nn4c3NCC4)cc2F)cc1 [Co. 2] | 2.51e-08 | ~8.03 | > 1e-05 | 7.7 |  | 1.26e-08 | 153 |  |  |  |  |
| CC(C)c1ccc(COc2ccc(-c3c(-c4ccncc4)nn4c3N(C)CCC4)cc2)cc1 [Co. 19] | 1e-07 | 6.7 | > 1e-05 | 6.4 |  | 7.94e-07 | 120 |  |  |  |  |
| CC(C)c1ccc(COc2ccc(-c3c(-c4ccncc4)nn4c3NC(=O)C4)cc2)cc1 [Co. 13] | 1.58e-07 | 6.8 | > 1e-05 | 6.7 |  | 5.01e-07 |  | 6.8 |  |  |  |
| CC(C)c1ccc(COc2ccc(-c3c(-c4ccncc4)nn4c3NCCC4)c(F)c2)cc1 [Co. 18] | 2e-08 | 7.6 | > 1e-05 | 7.8 |  | 3.98e-07 | 188 |  |  |  |  |
| CC(C)c1ccc(COc2ccc(-c3c(-c4ccncc4)nn4c3NCC4)cc2)cc1 [Co. 1] | 1.26e-07 | 7.0 | 5.01e-06 | ~6.7 | 6.4 | 7.94e-07 | 156 |  | 64 | 16 | −18 |
| c1cc(-c2nn3c(c2-c2ccc(OCc4ccc(C5CC5)cc4)cc2)NCC3)ccn1 [Co. 7] | 2.51e-07 | 6.8 | > 1e-05 | 7.5 | 6.2 | 6.31e-07 | 159 |  |  |  |  |
| CC(C)c1ccc(COc2ccc(-c3c(-c4ccncn4)nn4c3NCC4)cc2)cc1 [Co. 14] | 3.98e-07 | 6.5 | ~7.41e-06 | 6.6 |  | 1e-06 | 109 |  |  |  |  |
